Experiment [1] has as its target Serine/threonine-protein kinase N2 (Homo sapiens, UniProt Q16513). As to the kind of experiment: Selectivity interaction (LanthaScreen Eu Kinase Binding Assay) EUB0001632a PKN2. The settings on record: at 10 µM. For orientation: TR-FRET usually uses a lanthanide donor and a delayed reading to cut background.
The target in experiment [2] is Dual specificity mitogen-activated protein kinase kinase 1 (Homo sapiens, UniProt Q02750). As to the kind of experiment: Selectivity interaction (Kinase panel (Eurofins)) EUB0001564a MAP2K1. The settings on record: at 1 µM.
Sequence of Dual specificity mitogen-activated protein kinase kinase 1 (Q02750 whole entry): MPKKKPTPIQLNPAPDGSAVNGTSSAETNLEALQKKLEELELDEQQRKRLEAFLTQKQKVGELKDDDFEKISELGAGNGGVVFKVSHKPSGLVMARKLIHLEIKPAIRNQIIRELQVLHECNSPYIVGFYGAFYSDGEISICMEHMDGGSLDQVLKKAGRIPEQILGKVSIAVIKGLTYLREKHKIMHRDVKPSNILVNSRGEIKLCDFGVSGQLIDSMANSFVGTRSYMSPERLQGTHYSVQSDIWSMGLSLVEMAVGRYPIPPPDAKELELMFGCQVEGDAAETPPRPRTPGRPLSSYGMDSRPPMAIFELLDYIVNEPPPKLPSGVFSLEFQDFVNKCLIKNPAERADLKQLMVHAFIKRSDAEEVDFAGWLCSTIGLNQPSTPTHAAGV
Experiment [3] addresses Calcium/calmodulin-dependent protein kinase type II subunit gamma (Homo sapiens) (UniProt Q13555). The experiment can be described thus: Selectivity interaction (KinomeScan (DiscoverX)) EUB0000607a CAMK2G. The settings on record: at 10 µM.
For experiment [4], the target named is Serine/threonine-protein kinase PAK 1 (Homo sapiens) (UniProt Q13153). As to the kind of experiment: Selectivity interaction (Kinase panel (Invitrogen)) EUB0000639a PAK1. To be noted: at 200 nM.
Sequence of Serine/threonine-protein kinase PAK 1 (Homo sapiens) (Q13153 whole entry): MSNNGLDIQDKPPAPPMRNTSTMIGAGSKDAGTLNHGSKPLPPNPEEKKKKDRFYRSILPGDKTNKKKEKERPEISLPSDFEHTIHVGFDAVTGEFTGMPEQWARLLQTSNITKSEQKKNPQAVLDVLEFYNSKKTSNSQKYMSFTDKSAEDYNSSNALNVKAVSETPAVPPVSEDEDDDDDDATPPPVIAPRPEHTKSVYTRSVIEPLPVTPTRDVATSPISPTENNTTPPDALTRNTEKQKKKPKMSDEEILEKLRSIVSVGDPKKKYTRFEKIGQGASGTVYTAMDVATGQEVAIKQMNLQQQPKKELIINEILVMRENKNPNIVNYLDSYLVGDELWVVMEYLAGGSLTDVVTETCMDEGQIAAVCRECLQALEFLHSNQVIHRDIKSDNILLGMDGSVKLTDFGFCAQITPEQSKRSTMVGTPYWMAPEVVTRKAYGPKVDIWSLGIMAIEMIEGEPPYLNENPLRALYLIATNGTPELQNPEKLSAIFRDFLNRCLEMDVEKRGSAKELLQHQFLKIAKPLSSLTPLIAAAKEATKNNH
Experiment [5] deals with eIF-2-alpha kinase GCN2 (Homo sapiens), Q9P2K8 [S808G]. As to the kind of experiment: Selectivity interaction (KinomeScan (DiscoverX)) EUB0000045b EIF2AK4.
Sequence of eIF-2-alpha kinase GCN2 (Homo sapiens), Q9P2K8 [S808G] (Q9P2K8 whole entry S808G): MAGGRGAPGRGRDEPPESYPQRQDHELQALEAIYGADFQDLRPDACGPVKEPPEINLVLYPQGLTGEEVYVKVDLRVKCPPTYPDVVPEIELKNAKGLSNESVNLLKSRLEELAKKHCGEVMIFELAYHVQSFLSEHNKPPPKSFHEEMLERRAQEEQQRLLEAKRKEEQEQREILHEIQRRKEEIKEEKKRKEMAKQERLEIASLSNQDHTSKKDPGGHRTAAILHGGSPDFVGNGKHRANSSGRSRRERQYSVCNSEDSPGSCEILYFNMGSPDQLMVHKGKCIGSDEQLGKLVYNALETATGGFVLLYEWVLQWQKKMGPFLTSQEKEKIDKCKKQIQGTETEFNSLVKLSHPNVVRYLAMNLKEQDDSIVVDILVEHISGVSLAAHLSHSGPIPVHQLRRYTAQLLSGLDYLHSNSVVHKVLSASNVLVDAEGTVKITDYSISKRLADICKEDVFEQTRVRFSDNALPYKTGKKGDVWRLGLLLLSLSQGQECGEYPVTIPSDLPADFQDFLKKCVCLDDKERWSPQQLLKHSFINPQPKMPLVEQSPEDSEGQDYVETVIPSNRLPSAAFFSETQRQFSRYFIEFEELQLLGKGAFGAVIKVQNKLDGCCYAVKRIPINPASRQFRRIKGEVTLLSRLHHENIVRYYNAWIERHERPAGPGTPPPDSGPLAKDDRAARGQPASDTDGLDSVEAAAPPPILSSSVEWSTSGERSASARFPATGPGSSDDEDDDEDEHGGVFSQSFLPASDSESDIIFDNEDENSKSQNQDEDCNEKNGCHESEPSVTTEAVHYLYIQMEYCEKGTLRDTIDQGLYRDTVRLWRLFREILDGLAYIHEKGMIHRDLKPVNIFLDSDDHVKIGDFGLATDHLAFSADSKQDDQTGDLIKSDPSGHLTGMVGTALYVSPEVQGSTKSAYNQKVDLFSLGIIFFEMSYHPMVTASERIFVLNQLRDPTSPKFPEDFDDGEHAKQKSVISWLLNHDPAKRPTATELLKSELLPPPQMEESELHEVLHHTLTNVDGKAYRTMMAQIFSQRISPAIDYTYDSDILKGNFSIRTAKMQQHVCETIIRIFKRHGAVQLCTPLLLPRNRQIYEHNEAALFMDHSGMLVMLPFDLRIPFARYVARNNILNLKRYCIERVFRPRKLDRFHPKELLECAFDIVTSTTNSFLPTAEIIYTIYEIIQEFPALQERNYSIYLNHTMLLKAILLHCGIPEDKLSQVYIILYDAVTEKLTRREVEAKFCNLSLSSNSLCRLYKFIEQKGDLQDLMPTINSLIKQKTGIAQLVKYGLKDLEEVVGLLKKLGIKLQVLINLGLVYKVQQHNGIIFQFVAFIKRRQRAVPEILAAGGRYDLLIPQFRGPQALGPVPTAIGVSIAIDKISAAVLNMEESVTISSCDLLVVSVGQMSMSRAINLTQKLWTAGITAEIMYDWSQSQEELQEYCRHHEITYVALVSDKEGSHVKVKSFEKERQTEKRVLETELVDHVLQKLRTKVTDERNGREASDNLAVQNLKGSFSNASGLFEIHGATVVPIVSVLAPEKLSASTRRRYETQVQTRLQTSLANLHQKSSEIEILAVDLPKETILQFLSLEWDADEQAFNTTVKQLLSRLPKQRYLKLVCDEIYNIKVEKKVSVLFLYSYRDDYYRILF
The target in experiment [6] is T1, Myosin light chain kinase family member 4 (Homo sapiens) (UniProt Q86YV6).
T1 sequence (whole entry): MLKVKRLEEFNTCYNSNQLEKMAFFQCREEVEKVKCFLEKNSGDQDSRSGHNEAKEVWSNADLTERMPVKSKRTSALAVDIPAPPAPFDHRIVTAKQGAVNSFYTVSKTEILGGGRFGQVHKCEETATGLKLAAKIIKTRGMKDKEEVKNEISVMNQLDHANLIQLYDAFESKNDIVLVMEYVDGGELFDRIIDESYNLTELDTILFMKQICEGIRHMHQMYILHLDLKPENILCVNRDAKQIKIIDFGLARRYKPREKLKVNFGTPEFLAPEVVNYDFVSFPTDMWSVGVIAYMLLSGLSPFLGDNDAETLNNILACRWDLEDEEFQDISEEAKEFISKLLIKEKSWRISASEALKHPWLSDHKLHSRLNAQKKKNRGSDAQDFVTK
As to the kind of experiment: Selectivity interaction (Ambit KINOMEscan and KiNATiv profiling in Jurkat cells) EUB0000090b MYLK4. The settings on record: at 1 µM. In kind it is cell-based.

The target in experiment [7] is Serine/threonine-protein kinase OSR1 (Homo sapiens) (UniProt O95747). The experiment can be described thus: Selectivity interaction (Ambit KINOMEscan and KiNATiv profiling in Jurkat cells) EUB0000090b OXSR1. The experiment is classed as cell-based. The settings on record: at 1 µM.
The target of experiment [8] is Amine oxidase [flavin-containing] A (Homo sapiens, UniProt P21397). As to the kind of experiment: Selectivity interaction (Monoamine Oxidase A, human recombinant baculovirus ) EUB0000877a MAOA.
Sequence of Amine oxidase [flavin-containing] A (P21397 whole entry): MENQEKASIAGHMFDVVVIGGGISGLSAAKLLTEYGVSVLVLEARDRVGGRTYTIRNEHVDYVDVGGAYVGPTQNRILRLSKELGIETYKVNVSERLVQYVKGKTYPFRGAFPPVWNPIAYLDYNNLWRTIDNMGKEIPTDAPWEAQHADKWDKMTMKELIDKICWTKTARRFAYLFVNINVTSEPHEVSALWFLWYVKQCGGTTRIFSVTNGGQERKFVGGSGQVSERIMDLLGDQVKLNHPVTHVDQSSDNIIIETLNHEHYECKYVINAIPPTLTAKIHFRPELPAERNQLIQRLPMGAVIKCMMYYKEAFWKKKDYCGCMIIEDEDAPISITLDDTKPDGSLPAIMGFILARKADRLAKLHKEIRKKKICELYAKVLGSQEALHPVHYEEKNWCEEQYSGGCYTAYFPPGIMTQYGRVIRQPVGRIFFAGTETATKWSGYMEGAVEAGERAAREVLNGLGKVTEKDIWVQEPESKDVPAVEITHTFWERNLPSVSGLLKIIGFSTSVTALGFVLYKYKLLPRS
Experiment [9] has as its target T2, Dual specificity mitogen-activated protein kinase kinase 4 (Homo sapiens) (UniProt P45985).
T2 sequence (whole entry): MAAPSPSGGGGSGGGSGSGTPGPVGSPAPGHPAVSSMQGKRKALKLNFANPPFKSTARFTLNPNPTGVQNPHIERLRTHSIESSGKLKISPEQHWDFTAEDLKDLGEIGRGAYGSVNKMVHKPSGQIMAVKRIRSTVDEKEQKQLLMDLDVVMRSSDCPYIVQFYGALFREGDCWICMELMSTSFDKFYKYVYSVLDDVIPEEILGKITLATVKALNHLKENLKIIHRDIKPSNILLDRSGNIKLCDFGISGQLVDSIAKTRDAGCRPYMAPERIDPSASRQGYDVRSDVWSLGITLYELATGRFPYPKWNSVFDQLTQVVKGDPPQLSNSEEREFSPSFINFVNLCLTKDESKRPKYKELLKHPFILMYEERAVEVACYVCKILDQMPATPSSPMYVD
As to the kind of experiment: Selectivity interaction (KinomeScan (DiscoverX)) EUB0001079a MAP2K4. To be noted: at 1 µM.

In experiment [10] the target is T3, Cyclin-G-associated kinase (Homo sapiens) (UniProt O14976).
T3 sequence (whole entry): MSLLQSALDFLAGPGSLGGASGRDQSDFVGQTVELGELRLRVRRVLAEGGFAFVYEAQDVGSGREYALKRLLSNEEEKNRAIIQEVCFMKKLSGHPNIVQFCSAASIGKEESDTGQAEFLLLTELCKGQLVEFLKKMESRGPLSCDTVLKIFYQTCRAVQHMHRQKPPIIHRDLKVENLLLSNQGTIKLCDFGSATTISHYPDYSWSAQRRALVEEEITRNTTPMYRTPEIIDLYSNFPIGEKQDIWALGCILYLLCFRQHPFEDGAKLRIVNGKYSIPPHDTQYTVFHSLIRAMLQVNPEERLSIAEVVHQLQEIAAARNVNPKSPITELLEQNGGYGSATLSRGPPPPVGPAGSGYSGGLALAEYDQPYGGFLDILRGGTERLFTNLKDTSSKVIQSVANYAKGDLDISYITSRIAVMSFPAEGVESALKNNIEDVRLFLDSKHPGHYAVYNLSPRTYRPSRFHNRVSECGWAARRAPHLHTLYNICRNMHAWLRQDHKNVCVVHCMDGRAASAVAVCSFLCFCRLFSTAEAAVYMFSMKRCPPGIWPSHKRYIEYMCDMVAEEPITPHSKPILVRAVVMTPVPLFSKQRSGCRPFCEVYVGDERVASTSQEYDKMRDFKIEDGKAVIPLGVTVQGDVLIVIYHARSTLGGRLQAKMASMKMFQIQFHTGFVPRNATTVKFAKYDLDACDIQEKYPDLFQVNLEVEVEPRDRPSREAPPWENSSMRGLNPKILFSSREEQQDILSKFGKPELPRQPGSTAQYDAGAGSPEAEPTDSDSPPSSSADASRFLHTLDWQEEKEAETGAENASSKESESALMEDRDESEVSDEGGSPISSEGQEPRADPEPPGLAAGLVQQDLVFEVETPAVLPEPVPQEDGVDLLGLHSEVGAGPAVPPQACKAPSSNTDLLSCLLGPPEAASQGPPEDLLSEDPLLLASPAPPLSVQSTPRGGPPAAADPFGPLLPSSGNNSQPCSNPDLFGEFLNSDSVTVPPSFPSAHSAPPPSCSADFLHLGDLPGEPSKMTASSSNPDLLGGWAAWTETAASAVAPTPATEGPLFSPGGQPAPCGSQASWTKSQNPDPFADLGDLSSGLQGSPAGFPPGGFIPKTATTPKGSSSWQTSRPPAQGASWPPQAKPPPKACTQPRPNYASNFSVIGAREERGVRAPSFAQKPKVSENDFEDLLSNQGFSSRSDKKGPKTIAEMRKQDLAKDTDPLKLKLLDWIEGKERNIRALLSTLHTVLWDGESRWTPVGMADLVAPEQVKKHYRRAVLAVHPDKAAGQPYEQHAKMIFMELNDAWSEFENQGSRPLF
The experiment can be described thus: Selectivity interaction (KinomeScan (DiscoverX)) EUB0000229b GAK. The settings on record: at 10 µM.

The target in experiment [11] is Serine/threonine-protein kinase MRCK alpha (Homo sapiens) (UniProt Q5VT25). The experiment can be described thus: Selectivity interaction (KinomeScan (DiscoverX)) EUB0000229b CDC42BPA. To be noted: at 10 µM.
Sequence of Serine/threonine-protein kinase MRCK alpha (Homo sapiens) (Q5VT25 whole entry): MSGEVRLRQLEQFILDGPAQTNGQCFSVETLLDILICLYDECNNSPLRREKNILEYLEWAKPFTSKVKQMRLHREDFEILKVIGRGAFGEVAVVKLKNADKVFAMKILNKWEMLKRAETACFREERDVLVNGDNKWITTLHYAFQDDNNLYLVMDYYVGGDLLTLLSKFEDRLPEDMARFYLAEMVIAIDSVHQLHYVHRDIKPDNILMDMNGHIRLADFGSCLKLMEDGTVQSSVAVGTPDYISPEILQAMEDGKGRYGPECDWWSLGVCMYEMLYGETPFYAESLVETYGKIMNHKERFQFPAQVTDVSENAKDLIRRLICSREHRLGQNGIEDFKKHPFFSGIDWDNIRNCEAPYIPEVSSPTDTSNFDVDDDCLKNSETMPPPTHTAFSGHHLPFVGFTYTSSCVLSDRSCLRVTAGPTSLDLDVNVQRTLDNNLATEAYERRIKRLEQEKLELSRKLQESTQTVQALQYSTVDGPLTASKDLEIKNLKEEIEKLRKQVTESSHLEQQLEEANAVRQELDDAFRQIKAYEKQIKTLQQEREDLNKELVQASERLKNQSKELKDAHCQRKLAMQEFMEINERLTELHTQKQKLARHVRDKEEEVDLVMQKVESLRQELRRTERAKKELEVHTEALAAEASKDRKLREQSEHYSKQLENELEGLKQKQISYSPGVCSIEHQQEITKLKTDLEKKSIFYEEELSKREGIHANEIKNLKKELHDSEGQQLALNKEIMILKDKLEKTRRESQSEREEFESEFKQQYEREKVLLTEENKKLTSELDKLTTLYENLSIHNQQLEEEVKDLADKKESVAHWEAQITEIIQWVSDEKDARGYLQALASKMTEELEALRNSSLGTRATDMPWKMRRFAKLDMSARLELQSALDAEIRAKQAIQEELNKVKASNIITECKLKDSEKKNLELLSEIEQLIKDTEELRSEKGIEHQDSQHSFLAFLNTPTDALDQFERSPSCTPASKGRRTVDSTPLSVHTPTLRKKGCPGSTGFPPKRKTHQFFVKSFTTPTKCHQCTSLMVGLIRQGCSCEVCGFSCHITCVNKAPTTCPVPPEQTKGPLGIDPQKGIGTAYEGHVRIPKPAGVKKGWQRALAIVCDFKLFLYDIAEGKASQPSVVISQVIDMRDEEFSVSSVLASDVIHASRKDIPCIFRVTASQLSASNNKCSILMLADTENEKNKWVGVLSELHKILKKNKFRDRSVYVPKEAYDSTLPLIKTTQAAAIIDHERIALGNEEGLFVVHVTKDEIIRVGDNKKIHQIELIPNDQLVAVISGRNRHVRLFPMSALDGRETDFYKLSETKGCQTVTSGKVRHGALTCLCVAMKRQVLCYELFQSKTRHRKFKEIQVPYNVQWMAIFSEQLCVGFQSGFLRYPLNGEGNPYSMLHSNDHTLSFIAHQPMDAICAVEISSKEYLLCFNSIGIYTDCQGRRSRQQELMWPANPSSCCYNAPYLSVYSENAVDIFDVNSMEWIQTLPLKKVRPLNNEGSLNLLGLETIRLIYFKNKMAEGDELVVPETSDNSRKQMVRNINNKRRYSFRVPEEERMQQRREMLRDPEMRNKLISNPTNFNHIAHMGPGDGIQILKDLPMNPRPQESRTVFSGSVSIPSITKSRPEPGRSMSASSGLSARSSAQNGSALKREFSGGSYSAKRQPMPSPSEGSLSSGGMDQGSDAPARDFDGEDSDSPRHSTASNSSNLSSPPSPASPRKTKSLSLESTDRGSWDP

This is an account of results in ChEMBL document CHEMBL5465560, “Selectivity Literature for EUbOPEN Chemogenomic Library” (2024).

Molecules are shown by their SMILES.

Take `Cn1cc(-n2cnc3c(NCc4nc5cc(Cl)c(Cl)cc5[nH]4)nc(N4CCOCC4)nc32)cn1`: in [1], the % of inhibition was -5.46%. On to `CC[C@@H](Nc1c(C#N)c(-c2ccc(-c3cccc(C)c3F)cc2)nc2cnccc12)C(=O)O` [BAY-091], for which the % of inhibition in [2] is 21.5%. In the case of `CNC(=O)Nc1ccc(-c2nc(N3CC4CCC(C3)O4)c3cnn(C4CCC5(CC4)OCCO5)c3n2)cc1`, the % of control in experiment [3] was 100%.

`CC[C@@H]1[C@H](F)C(=O)N[C@@H]1COc1nccc2cc(C(N)=O)c(OC)cc12` [ZIMLOVISERTIB]: the % of inhibition in [4] was -9.19%. For the compound `C=CC(=O)Nc1cc(-n2c(=O)ccc3cnc4ccc(-c5ccc(NS(C)(=O)=O)cc5)cc4c32)ccc1C`, the % of control in experiment [5] (at 1 µM) amounted to 100%; in [5] (at 10 µM), 84%. For `CN(C)C/C=C/C(=O)Nc1ccc(C(=O)N2CCCC(Nc3ncc(Cl)c(-c4c[nH]c5ccccc45)n3)C2)cc1` (configuration not stated), the % of control in experiment [6] turned out to be 55%; in [7] it was 87%. `CCC(=O)N1CC[C@H](Nc2ncnc3c2CN(c2cnc(OC)c(C(F)(F)F)c2)CC3)C1` [LENIOLISIB]: the IC50 in experiment [8] was greater than 30 µM. `Nc1cnc(N2CCc3cc(S(=O)(=O)Nc4c(F)cc(Cl)cc4F)cc(N4CCCC4=O)c32)nc1` [TP-020n] came in with a % of control in [9] of 100%. In the case of `COc1cc(N(C)c2ccnc3ccc(C(F)(F)F)cc23)cc(OC)c1OC`, the % binding in experiment [10] turned out to be 43%; in experiment [11], 100%.

For orientation: IC50 means the concentration at which inhibition is half-maximal.
